In patent US6403602B1 (priority 1997, dated 2002):

How the values were obtained:
mu receptors = type: cell-based, guinea pig
[1] = tested on: electrically stimulated mouse vas deferens; assay: tissue or blood; type: cell-based; details: Mus musculus, read-out: Mouse vas deferens maximum inhibition
delta receptors = target: T1, delta receptors (Cavia porcellus, UniProt A0A286XTF2); assay: biochemical; type: binding, guinea pig
T1 construct: The brains were then homogenized in 50 mM Tris HCl, buffer pH 7.7, using a Polytron; from tissue; host or cells: guinea pig brain homogenate (membrane pellet)

kappa3 receptors = type: binding, guinea pig
kappa1 sites = target: T2, kappa1 sites (Cavia porcellus, UniProt P41144); assay: biochemical; type: binding, guinea pig
T2 construct: The brains were then homogenized in 50 mM Tris HCl, buffer pH 7.7, using a Polytron; from tissue; host or cells: guinea pig brain homogenate (membrane pellet)

nociception (tail-flick) [2] = assay: Tail-flick test after subcutaneous administration; details: rat tail-flick, sc, dose equimolar to 5 mg/kg morphine
kappa receptors = target: T3, kappa receptors (Cavia porcellus, UniProt P41144); type: cell-based, guinea pig
T3 construct: The longitudinal muscle with the myenteric plexus attached was gently separated from the underlying circular muscle; from tissue; host or cells: guinea pig ileum longitudinal muscle with myenteric plexus

[3] = tested on: morphine withdrawal signs; assay: Single dose substitution and precipitated morphine withdrawal in morphine dependent Rhesus monkeys; details: sc, M3A6S 2.5 and 10.0 mg/kg, DM3A6S 3.0, 12.0 and […]
mu opioid receptors = mu opioid receptors (Cavia porcellus, UniProt A0ACM8Q262); type: binding, guinea pig
κ2 sites = type: binding, guinea pig
[4] = tested on: electrically stimulated guinea pig ileum; assay: tissue or blood; type: cell-based
nociception (tail-flick) [5] = assay: Tail-flick test after intracerebroventricular administration; type: in vivo; details: rat tail-flick, icv, molar dose equivalent to the lower dose of morphine

T3 sequence (P41144 whole entry): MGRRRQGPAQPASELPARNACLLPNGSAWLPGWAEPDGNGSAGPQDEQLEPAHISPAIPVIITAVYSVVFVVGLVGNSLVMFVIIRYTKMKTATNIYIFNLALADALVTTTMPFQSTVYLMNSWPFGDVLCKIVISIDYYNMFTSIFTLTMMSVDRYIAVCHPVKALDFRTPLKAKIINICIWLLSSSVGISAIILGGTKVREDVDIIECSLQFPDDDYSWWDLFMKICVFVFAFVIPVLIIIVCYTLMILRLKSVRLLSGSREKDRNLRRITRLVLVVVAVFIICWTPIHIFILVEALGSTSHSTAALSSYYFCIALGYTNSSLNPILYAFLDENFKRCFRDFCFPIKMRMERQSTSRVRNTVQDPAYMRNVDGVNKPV
mu opioid receptors, sequence (A0ACM8Q262 1-400): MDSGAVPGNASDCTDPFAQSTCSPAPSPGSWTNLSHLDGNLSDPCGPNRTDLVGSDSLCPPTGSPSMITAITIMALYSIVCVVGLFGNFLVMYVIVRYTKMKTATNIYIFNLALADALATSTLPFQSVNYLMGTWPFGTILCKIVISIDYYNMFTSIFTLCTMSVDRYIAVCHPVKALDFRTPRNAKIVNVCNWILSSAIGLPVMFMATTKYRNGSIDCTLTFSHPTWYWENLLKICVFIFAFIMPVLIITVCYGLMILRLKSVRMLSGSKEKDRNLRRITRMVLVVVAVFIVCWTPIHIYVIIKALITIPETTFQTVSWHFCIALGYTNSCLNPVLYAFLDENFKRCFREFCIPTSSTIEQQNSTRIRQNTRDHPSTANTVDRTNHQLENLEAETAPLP
T2 sequence (P41144 whole entry): as the sequence (P41144 whole entry) above
T1 sequence (A0A286XTF2 1-366): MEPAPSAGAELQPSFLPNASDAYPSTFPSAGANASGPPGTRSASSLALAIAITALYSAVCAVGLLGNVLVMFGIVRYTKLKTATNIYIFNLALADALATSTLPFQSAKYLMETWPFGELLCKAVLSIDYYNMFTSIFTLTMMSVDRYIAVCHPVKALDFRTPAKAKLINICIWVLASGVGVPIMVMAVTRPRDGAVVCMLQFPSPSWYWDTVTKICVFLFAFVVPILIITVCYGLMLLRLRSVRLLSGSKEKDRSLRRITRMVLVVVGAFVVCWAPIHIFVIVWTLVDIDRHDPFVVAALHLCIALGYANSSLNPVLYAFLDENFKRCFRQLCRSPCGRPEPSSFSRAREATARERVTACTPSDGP

CC(=O)Oc1ccc2c3c1O[C@H]1[C@@H](OS(=O)(=O)O)C=C[C@H]4[C@@H](C2)N(C)CC[C@@]341 [NIDA # 20,264, 3-O-Acetylmorphine-6-O-sulfate]
Guinea Pig Ileum DR with CTAP (mu receptors): 5.40 ± 0.18 | Guinea Pig Ileum Ke of CTAP (mu receptors): 22.73 ± 0.91 | Guinea Pig Ileum Ratio (CTAP) (mu receptors): 0.851 | inhibition at 200 µM [1]: 30% | Ki (delta receptors): 308 nM | affinity to kappa3 receptors in words (kappa3 receptors): greater affinity than that of morphine | selectivity for kappa3 receptors, greater than morphine (kappa3 receptors): 2.2 fold | Ki (kappa3 receptors; read-out: Ki κ3 [^3H]NalBzoH): 5.5 nM | Ki (kappa1 sites): 1160 nM | binding to kappa1 sites in words (kappa1 sites): weakly | analgesic activity in words (nociception (tail-flick) [2]): analgesic profile similar to that of M6S | duration of maximal analgesic effect (nociception (tail-flick) [2]): 4 h | Guinea Pig Ileum DR with Nor-BNI (kappa receptors): 1.39 ± 0.14 | Guinea Pig Ileum Ke of Nor-BNI (kappa receptors): 54.42 ± 19.6 | Guinea Pig Ileum Ratio (Nor-BNI) (kappa receptors): 0.001 | substitution for morphine / withdrawal, in words [3]: did not substitute for morphine, nor did it exacerbate withdrawal | Ki mu/Ki delta (mu opioid receptors): 0.0026 | affinity to mu receptors in words (mu opioid receptors): greater affinity than that of morphine | selectivity for mu-receptors, greater than morphine (mu opioid receptors): 3 fold | IC50 (κ2 sites): > 10000 nM | Guinea pig ileum, result in words [4]: inhibited electrically induced twitches | IC50 ([4]; Cavia porcellus, read-out: Guinea Pig Ileum IC50 (nM)): 25.9 ± 5.3 nM | duration of maximal analgesia (nociception (tail-flick) [5]): 90 min | time to maximal analgesic effect (nociception (tail-flick) [5]): 10 min
